Data as given in patent publication US6083959A, “Quinoline derivatives, processes for their preparation and their use as medicaments” (Fujisawa Pharmaceutical Co., Ltd., priority 1996, dated 2000).
Where a name gives a salt, the structure may show the parent alone.

Target: T1, Bradykinin Receptor (Cavia porcellus, UniProt O70526)
T1 construct: The ileum was removed and homogenized in buffer; from tissue; host or cells: guinea pig (male Hartley strain) ileum, crude membrane
T1 sequence (O70526 1-372): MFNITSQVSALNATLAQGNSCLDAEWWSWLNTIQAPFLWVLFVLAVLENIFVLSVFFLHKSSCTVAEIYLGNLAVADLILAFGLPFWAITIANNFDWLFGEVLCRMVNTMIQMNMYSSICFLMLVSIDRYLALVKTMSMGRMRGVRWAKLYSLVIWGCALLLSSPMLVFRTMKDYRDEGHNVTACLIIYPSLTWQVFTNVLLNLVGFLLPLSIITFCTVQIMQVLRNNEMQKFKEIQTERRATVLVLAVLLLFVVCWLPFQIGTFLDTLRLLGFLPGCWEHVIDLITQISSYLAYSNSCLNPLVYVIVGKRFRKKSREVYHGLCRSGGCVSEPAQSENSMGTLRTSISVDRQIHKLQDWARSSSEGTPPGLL
Experiment: ^3 H-Bradykinin Receptor Binding (crude guinea pig ileum membrane)
Conditions: ^3 H-Bradykinin 0.06 nM, room temperature, 60 minutes, read-out: Inhibition of ^3 H-Bradykinin binding IC50
Description: ^3 H-Bradykinin Receptor Binding
(a) Crude Ileum Membrane Preparation
Male Hartly strain guinea pigs were sacrificed by decapitation. The ileum was removed and homogenized in buffer (50 mM 2-[[tris(hydroxymethyl)methyl]amino]-1-ethanesulfonic acid (TES), 1 mM 1,10-phenanthroline pH 6.8). The homogenate was centrifuged (1000×g,20 minutes) to remove tissue clumps and the supernatant was centrifuges (100,000×g, 60 minutes) to yield a pellet. The pellet was resuspended in buffer (50 mM TES, 1 mM 1,10-phenanthroline, 140 mg/l bacitracin, 1 mM dithiothreiol, 0.1% bovine serum albumin pH 6.8) and homogenized with a glass-teflon homogenizer to yield suspension which was referred to as crude membrane suspension. The obtained membrane suspension was stored at -80° C. until use.
(b) ^3 H-Bradykinin Binding to the Membrane
The frozen crude membrane suspension was thawed. In binding assays, ^3 H-Bradykinin (0.06 nM) and drug were incubated with 50 μl of the membrane suspension at room temperature for 60 minutes in a final volume of 250 μl. Separation of receptor-bound from free ^3 H-Bradykinin is achieved by immediate filtration under vacuum and washed three times with 5 ml of ice-cold buffer (50 mM Tris-HCl pH 7.5). Non-specific binding was defined as binding in the presence of 0.1 μM Bradykinin. The radioactivity retained on rinsed filters was determined by a liquid-scintillation counter.

| Structure (SMILES) | IC50 |
| --- | --- |
| Cc1cc(-n2ccnc2)c2cccc(OCc3c(Cl)ccc(N(C)C(=O)CNC(=O)C=Cc4ccc(C(=O)NCc5ccccn5)cc4)c3Cl)c2n1 [2-(3) (trihydrochloride), 8-[2,6-Dichloro-3-[N-methyl-N-[4-[N-(2-pyridylmethyl)carbamoyl]cinnamoylglycyl]amino]benzyloxy]-4-(imidazol-1-yl)-2-methylquinoline] | 4.5 nM |
| Cc1cc(-n2ccnc2)c2cccc(OCc3c(Cl)ccc(N(C)C(=O)CNC(=O)Nc4cccc(C(=O)Nc5ccncc5)c4)c3Cl)c2n1 [3 (trihydrochloride), 8-[2,6-dichloro-3-[N-methyl-N-[N'-[3-[N-(4-pyridyl)carbamoyl]phenyl]ureidoacetyl]amino]benzyloxy]-4-(imidazol-1-yl)-2-methylquinoline] | 6.6 nM |
| Cc1cc(-n2cccn2)c2cccc(OCc3c(Cl)ccc(N(C)C(=O)CNC(=O)C=Cc4ccc(C(=O)N(C)C)cc4)c3Cl)c2n1 [11-(4) (dihydrochloride), 8-[2,6-Dichloro-3-[N-methyl-N-[4-(dimethylcarbamoyl)cinnamoylglycyl]amino]benzyloxy]-2-methyl-4-(pyrazol-1-yl)quinoline] | 3.3 nM |
| Cc1cc(-n2cncn2)c2cccc(OCc3c(Cl)ccc(N(C)C(=O)CNC(=O)C=Cc4ccc(C(=O)N(C)C)cc4)c3Cl)c2n1 [12 (dihydrochloride), 8-[2,6-Dichloro-3-[N-methyl-N-[4-(dimethylcarbamoyl)cinnamoylglycyl]amino]benzyloxy]-2-methyl-4-(1,2,4-triazol-1-yl)quinoline] | 9.1 nM |
| CCOC(=O)c1ccc(C=CC(=O)NCC(=O)N(C)c2ccc(Cl)c(COc3cccc4c(-n5ccnc5)cc(C)nc34)c2Cl)cc1 [17-(1), 8-[2,6-Dichloro-3-[N-(4-ethoxycarbonylcinnamoylglycyl)-N-methylamino]benzyloxy]-4-(imidazol-1-yl)-2-methylquinoline] | 3.9 nM |
